Data taken from patent publication US7629130B2 (priority 2005, dated 2009).
Read-outs that look alike come from different tables or passages of the source.

What was measured:
[1] = system: Legionella-containing vacuoles in calnexin-GFP-labeled Dictyostelium; type: cell-based, Dictyostelium discoideum
[2] = system: Dictyostelium; type: cell-based, Dictyostelium discoideum
[3] = system: Dictyostelium
[4] = system: Legionella-containing vacuoles in Dictyostelium; type: cell-based, Dictyostelium discoideum; conditions: 20 μM LY; 1 h infection; p<10^−9
[5] = system: L. pneumophila within Dictyostelium; type: cell-based, Legionella pneumophila; conditions: within 6-8 days; 10 μM LY (FIG. 2C); MOI 1
[6] = system: L. pneumophila
[7] = latrunculin B 1-50 μM, cytochalasin A 1-50 μM, cytochalasin D up to 50 μM, 1 h prior infection

O=c1cc(N2CCOCC2)oc2c(-c3ccccc3)cccc12 [LY294002]
portion of spacious LCVs ([1]; 15 min post infection, 20 μM LY-treated wild-type Dictyostelium (untreated 25%)): less than 5%
portion of spacious LCVs ([1]; within 2 h, 20 μM LY-treated wild-type Dictyostelium (untreated 40%)): 20%
change in phagocytosis of wild-type L. pneumophila ([2]; wild-type Dictyostelium treated with PI3K inhibitor (FIG. 2A: 5 μM wortmannin)): −33%
viability of Dictyostelium (PFU) [3]: did not affect viability
viability of Dictyostelium Ax3 in MB medium [3]: as viable as untreated
viability of Dictyostelium at later time points (PFU on K. pneumoniae lawns) [3]: reduced viability
factor more SidC localized to LCV membranes compared to untreated wild-type Dictyostelium [4]: ~1.5
factor more wild-type L. pneumophila released compared to wild-type Dictyostelium [5]: ~100
viability of L. pneumophila (CFU) ([6]; wortmannin 0.1-10 μM, LY294002 5-25 μM, HL5 medium): did not affect viability

C=C1[C@@H](C)[C@H]2[C@H](Cc3ccccc3)NC(=O)[C@]23OC(=O)/C=C/C(=O)CCC[C@@H](C)C/C=C/[C@H]3[C@@H]1O [cytochalasin A]
Icm/Dot-dependent phagocytosis [2]: blocked
inhibition of phagocytosis (uptake) of L. pneumophila [2, 7]: blocked phagocytosis in a dose-dependent manner

C=C1[C@@H](C)[C@H]2[C@H](Cc3ccccc3)NC(=O)[C@]23[C@H](OC(C)=O)/C=C/[C@@](C)(O)C(=O)[C@@H](C)C/C=C/[C@H]3[C@@H]1O [cytochalasin D]
inhibition of phagocytosis (uptake) of L. pneumophila [2, 7]: did not prevent uptake

C/C1=C/C(=O)O[C@@H]2C[C@@H](CC[C@H](C)/C=C\CC1)O[C@@](O)([C@@H]1CSC(=O)N1)C2 [latrunculin B]
Icm/Dot-dependent phagocytosis [2]: blocked
inhibition of phagocytosis (uptake) of L. pneumophila [2]: blocked phagocytosis in a dose-dependent manner
phagocytosis (FIG. 1) [2]: blocked

COC[C@H]1OC(=O)c2coc3c2[C@@]1(C)C1=C(C3=O)[C@@H]2CCC(=O)[C@@]2(C)C[C@H]1OC(C)=O [wortmannin]
change in phagocytosis of wild-type L. pneumophila [2]: −19%
viability of Dictyostelium (PFU) [3]: did not affect viability
viability of Dictyostelium Ax3 in MB medium [3]: as viable as untreated
viability of L. pneumophila (CFU) [6]: did not affect viability
